These results are taken from patent US10905654B2, “Compositions of bakuchiol and methods of making the same” (Unigen, Inc., priority 2005, dated 2021).

Structures are written as SMILES.

One data set relates to COX-1 versus COX-2. The settings on record: COX-1 selective inhibitor; cited from earlier work.
For data set [1], the target named is T1, human 5-lipoxygenase (5-LO or 5-LOX) (Homo sapiens, UniProt P09917).
T1 construct: 5-LOX was isolated from human PBML cells; endogenous in cells; host or cells: human PBML cells (peripheral blood mononuclear leukocytes)
T1 sequence (P09917 1-674): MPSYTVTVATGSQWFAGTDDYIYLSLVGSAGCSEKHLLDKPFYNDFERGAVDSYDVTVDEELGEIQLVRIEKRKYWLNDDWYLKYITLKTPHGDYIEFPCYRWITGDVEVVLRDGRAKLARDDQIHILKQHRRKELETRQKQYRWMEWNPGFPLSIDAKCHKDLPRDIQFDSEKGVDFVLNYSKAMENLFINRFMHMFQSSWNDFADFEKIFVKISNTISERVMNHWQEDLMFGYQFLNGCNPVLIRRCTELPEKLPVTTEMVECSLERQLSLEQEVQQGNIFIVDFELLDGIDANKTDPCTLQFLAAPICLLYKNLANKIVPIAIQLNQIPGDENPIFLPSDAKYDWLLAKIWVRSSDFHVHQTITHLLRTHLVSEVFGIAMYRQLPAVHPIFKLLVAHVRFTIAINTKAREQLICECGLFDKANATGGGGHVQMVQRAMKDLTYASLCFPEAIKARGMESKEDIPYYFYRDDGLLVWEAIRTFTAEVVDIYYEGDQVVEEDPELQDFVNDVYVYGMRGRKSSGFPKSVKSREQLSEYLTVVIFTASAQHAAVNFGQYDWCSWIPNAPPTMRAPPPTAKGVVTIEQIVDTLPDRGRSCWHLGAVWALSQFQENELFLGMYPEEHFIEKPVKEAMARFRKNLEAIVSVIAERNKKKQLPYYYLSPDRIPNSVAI
Briefly: Lipoxygenase Inhibition Assay (LTB4 formation, EIA). The format is biochemical. The settings on record: 99% bakuchiol; 5-LOX from human PBML cells, arachidonic acid substrate. The method, then:
As noted above, one of the most important pathways involved in the inflammatory response is produced by non-heme, iron-containing lipoxygenases (5-LOX, 12-LOX, and 15-LOX), which catalyze the oxidation of fatty acids such as AA to produce the hydroperoxides 5-, 12- and 15-HPETE, which are then converted to leukotrienes. A Lipoxygenase Inhibition Assay was carried out using a published method (Carter et al. (1991) J. Pharmacol. Exp. Ther. 256(3):929-937, Safayhi et al. (2000) Planta Medica. 66:110-113). 5-LOX was isolated from human PBML cells and arachidonic acid was utilized as a substrate. The test article and positive control were dissolved in 1% DMSO. HBSS (Hank's balanced salt solution) was used as incubation buffer. Pre-incubation time was 15 minutes at 37° C., followed by 15 min. incubation at the same temperature. This assay detects the formation of LTB4 with EIA quantification. Highly pure bakuchiol (99% bakuchiol, #MH-258-12-08) was tested in duplicate at concentrations of 10 μM, 1 μM, 0.1 μM, and 10 nM relative to a positive control-NDGA at five concentrations. The dose response curve is illustrated in the FIG. 6.

Data set [2] relates to Trichophyton mentagrophytes (ATCC 9533). Briefly: Antimicrobial activity. The format is cell-based. The settings on record: 99% pure sample; tested at 0.03-100 μg/mL.
The subject of data set [3] is Propionibacterium acnes (ATCC 6919). Briefly: Antimicrobial activity, turbidity. The format is cell-based. To be noted: 99% pure sample, tested at 0.03-100 μg/mL, 1 day. As for the experimental part: (§1) The anti-microbial activity of a highly pure bakuchiol sample (99% pure; #MH-258-12-08) was evaluated using published methods (Modugno et al. (1994) Antimicrobial Agents & Chemotherapy 38:2362-2368; Misiek et al. (1973) Antimicrobial Agents & Chemotherapy 3:40-48). Briefly, Staphylococcus epidermidis (Gram Positive. ATCC 12228) was cultured for 20 hours at 37° C. in Mueller-Hinton Broth medium. Propionibacterium acnes (ATCC 6919) was cultured for 2 days at 37° C. in Reinforced Clostridial medium. The test article and positive control were dissolved in 1% DMSO with an incubation volume of 1 mL. The time of assessment was 1 day. Measurement of turbidity was used as the method of quantification. A highly pure bakuchiol sample (99%; #MH-258-12-08) was tested in duplicate at concentrations of 100 μg/mL, 30 μg/mL, 10 μg/mL, 3 μg/mL, 1 μg/mL, 0.3 μg/mL, 0.1 μg/mL and 0.03 μg/mL relative to positive controls-gentamicin at 0.1 μg/mL for Staphylococcus epidermidis and ampicillin at 0.1 μg/mL for Propionibacterium acnes, respectively.

Data set [4] has as its system Staphylococcus epidermidis (Gram Positive, ATCC 12228). Briefly: Antimicrobial activity, turbidity. The format is cell-based. The settings on record: 99% pure sample, tested at 0.03-100 μg/mL, 1 day. The method, then: as §1
Data set [5] relates to Epidermophyton floccosum (ATCC 18397). Description: Antimicrobial activity. To be noted: 99% pure sample, tested at 0.03-100 μg/mL. The format is cell-based.
Another data set deals with T2, PTPIB (Homo sapiens, UniProt P18031).
T2 sequence (P18031 1-435): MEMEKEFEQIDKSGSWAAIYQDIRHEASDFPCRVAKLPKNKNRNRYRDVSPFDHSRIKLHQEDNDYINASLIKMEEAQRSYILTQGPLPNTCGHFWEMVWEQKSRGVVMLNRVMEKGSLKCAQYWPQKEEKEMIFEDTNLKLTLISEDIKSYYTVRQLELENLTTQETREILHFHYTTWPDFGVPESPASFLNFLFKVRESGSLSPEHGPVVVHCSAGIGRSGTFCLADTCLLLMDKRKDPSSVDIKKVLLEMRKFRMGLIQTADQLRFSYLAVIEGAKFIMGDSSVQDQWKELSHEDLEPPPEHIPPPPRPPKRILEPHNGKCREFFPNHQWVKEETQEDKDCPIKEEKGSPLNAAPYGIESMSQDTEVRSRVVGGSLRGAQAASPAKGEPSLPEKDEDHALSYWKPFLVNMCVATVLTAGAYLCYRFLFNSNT
To be noted: Kim et al. 2005; cited from earlier work.

The nature of data set [6]: Acute toxicity, 14-day study in mice. The format is in vivo, female ICR mice. The method, then: […] Forty female ICR mice (Harlan) aged 4-5 weeks old were used for the 14-day study. Mice were administered […] of the acute dose daily, approximately 2 g/kg by weight per test article per day. The first 10 mice received the composition containing 20.7% bakuchiol, while the second group of 10 mice received a composition containing 99% bakuchiol. The UP256 composition was suspended in water and administered through a syringe. Twenty mice were administered water, as the control group. The weights of all mice were measured, including baseline, 3 mid points, and an endpoint. […] Any abnormal health conditions or behavior was recorded over the two-week period. A necropsy of all mice was completed on day 14 and blood from all groups was collected for a complete blood screen. Two mice picked randomly from each of groups also had kidney and liver tissues removed for Histopathology. All blood work and pathology work was completed through Antech Diagnostics.

In data set [7] the test system is Microsporum canis (ATCC 36299). Briefly: Antimicrobial activity. The format is cell-based. The settings on record: 99% pure sample, tested at 0.03-100 μg/mL.
For data set [8], the system named is Pityrosporum ovale (ATCC 38593). Briefly: Antimicrobial activity. The format is cell-based. The settings on record: 99% pure sample, tested at 0.03-100 μg/mL.
In a further data set the target is COX-1 (Homo sapiens, UniProt P23219). Briefly: COX-1 inhibition, peroxidase activity assay. The format is biochemical. To be noted: 99% bakuchiol sample, IC50 normalized to enzyme units. The text has this:
In order to screen for compounds that inhibited COX-1 and COX-2 activity, a high throughput, in vitro assay was developed that utilized the inhibition of the peroxidase activity of both enzymes. (Needleman et al. (1986) Annu Rev Biochem. 55:69). Briefly, the composition or compound being examined was titrated against a fixed amount of COX-1 and COX-2 enzymes. A cleavable, peroxide chromophore was included in the assay to visualize the peroxidase activity of each enzyme in presence of arachidonic acid as a cofactor. Typically, assays were performed in a 96-well format. Each inhibitor, taken from a 10 mg/mL stock solution in 100% DMSO, was tested in triplicate at room temperature using the following range of concentrations: 0, 0.1, 1, 5, 10, 20, 50, 100, and 500 μg/mL. To each well, 150 μL of 100 mM Tris-HCl, pH 7.5 was added along with 10 μL of 22 μM Hematin diluted in tris buffer, 10 μL of inhibitor diluted in DMSO and 25 units of either the COX-1 or COX-2 enzyme. […] The plate was shaken for 10 seconds and then incubated 5 minutes before reading the absorbance at 570 nm. The inhibitor concentration vs. % inhibition was plotted and the IC50 determined by taking the half-maximal point along the isotherm and intersecting the concentration on the X-axis. […]

[9] abbreviates: 20.7% and 99% bakuchiol samples, approximately 2 g/kg per day, 14 days.
Setting [10] is: UP256 at concentrations of 30% and 70%, oral daily 2 g/kg for 14 days.
The mark [11] stands for this setting: day 14, 20.7% and 99% bakuchiol samples, approximately 2 g/kg per day.
Where [12] appears, read: two mice per group, approximately 2 g/kg per day, 14 days.

Chain of COX-1 (P23219 24-599): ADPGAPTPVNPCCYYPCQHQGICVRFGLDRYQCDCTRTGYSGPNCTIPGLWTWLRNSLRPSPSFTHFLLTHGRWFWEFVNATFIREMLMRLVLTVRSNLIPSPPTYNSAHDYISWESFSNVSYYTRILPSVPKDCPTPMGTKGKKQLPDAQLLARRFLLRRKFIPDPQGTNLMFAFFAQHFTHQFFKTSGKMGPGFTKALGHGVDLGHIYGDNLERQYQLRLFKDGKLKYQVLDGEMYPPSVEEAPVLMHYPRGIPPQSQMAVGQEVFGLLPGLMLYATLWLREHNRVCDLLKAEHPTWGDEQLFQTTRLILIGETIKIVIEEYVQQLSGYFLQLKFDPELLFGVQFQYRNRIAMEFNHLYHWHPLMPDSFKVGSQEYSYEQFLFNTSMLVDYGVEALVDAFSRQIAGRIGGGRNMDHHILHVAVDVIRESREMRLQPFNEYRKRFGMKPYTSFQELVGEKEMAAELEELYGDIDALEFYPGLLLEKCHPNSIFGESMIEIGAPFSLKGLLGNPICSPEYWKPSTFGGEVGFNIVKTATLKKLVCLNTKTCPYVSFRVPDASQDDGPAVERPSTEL

Consider `CC(=O)Oc1ccccc1C(=O)O` [aspirin], for which the “effectiveness against COX-1 versus COX-2” value in the data set on COX-1 versus COX-2 is “more than 150 times”.
As for `C=C[C@@](C)(/C=C/c1ccc(O)cc1)CCC=C(C)C` [UP256, bakuchiol], the IC50 was 3.41 µM in data set [1], 20.8 µM on PTPIB and 2.34 µM against COX-1. Further, the “concentration of moderate inhibition” value in data set [2] was found to be 30 µg/mL. Further, the “minimum effective concentration (significant inhibition)” value in data set [3] and in data set [4] was 1 µg/mL in each case. Further, the inhibition result in data set [5] is recorded as “No inhibition”; in data set [5] (listed as bakuchiol), “no inhibition”; in [7] it was “No inhibition”; in data set [7] (listed as bakuchiol), “no inhibition”; in data set [8], “No inhibition”; in [8] (listed as bakuchiol), “no inhibition”. Moreover, in data set [6] (setting [9]), the average weight entry was “continued to increase”. The food/water consumption result in [6] (setting [9]) is “remained the same”. The “significant difference in behavior versus control mice” value in [6] (setting [9]) is “Aggression towards the investigator (i.e. biting) and towards each other (i.e. fighting in cage)”. The “adverse effects, fourteen-day study” value in data set [6] (setting [10]) is “No adverse effects”; in [6] (both purity levels (20% and 99% purity), approximately 2 g/kg per day) it was “No adverse effects”. Further, the “toxicity in major organs tested” value in data set [6] (setting [10]) is recorded as “no toxicity”. In [6] (setting [11]), the blood work result is “normal relative to the controls”. Moreover, the necropsy entry in data set [6] (setting [11]) is reported as “no gross abnormalities or changes in any organ”. Moreover, in data set [6] (setting [12]), the “histopathology, kidney” value was “significant changes were not present”. For the same molecule, the “histopathology, liver hepatocyte nuclei” value in [6] (setting [12]) was “within normal limits”. For the same molecule, the logP in “physchem” came out at 6.13.
